# Experimental data reported in PubChem BioAssay AID1288 (Columbia University Molecular Screening Center, 2008).
# The source made the active and inactive calls. The rule behind the calls is not given here.
# Assay: inhibitors of TNFa-induced E-selectin expression, confirmation, imaging, retest plus dose response, cell count (AID 1288);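 note: 0% = stimulated vehicle wells and 100% = unstimulated vehicle wells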
# Details: human endothelial cells, TNFa-induced E-selectin, imaging; at 2 µM; hits give high values
row,SMILES,inhibition
1,CC(C)c1c(O)cc(-c2ccncc2)n(-c2ccc(Cl)cc2)c1=O,3.17% (inactive)
2,Cc1ccc(C2CC(=O)N(c3ccc(F)cc3)C3=C2C(=O)CCC3)cc1 (stereo unspecified),4.74% (inactive)
3,COc1ccc(OCC2CNC(=O)O2)cc1 (stereo unspecified),0.97% (inactive)
4,C=CCn1c(=O)c2ccccc2n2c(SCC(=O)N3CCCc4ccccc43)nnc12,6.51% (inactive)
5,NC(=O)C1CCCN(C(=S)Nc2cccc3ccccc23)C1 (stereo unspecified),9.37% (inactive)
6,Cc1cc(SCc2cc(=O)[nH]c3ccccc23)nc2ccccc12,-9.63% (inactive)
7,C=CCn1c(SCC(=O)NC)nc2sc3c(c2c1=O)CCC3,4.27% (inactive)
8,COc1ccc(Cc2nnc(SCC(=O)NC3CCCC3)o2)cc1,40.2% (inactive)
9,CCC(C)NC(=O)C(NS(=O)(=O)c1cccc2nsnc12)c1ccccc1 (stereo unspecified),9.11% (inactive)
10,COc1ccccc1NC(=O)CSc1nnc2ccc(-c3cccnc3)nn12,-0.72% (inactive)
11,CCn1cc(C(=O)O)c(=O)c2cc(F)c(N3CCN(C(=S)NC(=O)c4ccc(Br)cc4)CC3)cc21,7.45% (inactive)
12,COCCNC(=O)c1ccc(N(C)S(=O)(=O)c2ccc(OC)c(OC)c2)cc1,0.94% (inactive)
13,CCOC(=O)N1CCC(NC(=O)CN2C(=O)CSc3nc(C)cc(C)c32)CC1,3.53% (inactive)
14,COc1ccc(CNC(=O)C(CCSC)NS(=O)(=O)c2ccccc2F)cc1 (stereo unspecified),5.1% (inactive)
15,N#CCc1c(C#N)c(N)nc(N2CCN(c3ccc(F)cc3)CC2)c1C#N,4.37% (inactive)
16,C#CCN1C(=O)C(O)(CC(=O)c2cccc(OC)c2)c2ccccc21 (stereo unspecified),16% (inactive)
17,OC(c1ccc2c(c1)OCO2)c1nccc2ccccc12 (stereo unspecified),4.74% (inactive)
18,CCS(=O)(=O)NCC(c1ccco1)N1CCN(c2ccccc2)CC1 (stereo unspecified),0.44% (inactive)
19,Cc1ccc(N2C(=O)[C@@H]3C(C(=O)CCN4C(=O)c5ccccc5C4=O)=NN[C@@H]3C2=O)cc1,6.74% (inactive)
20,Cc1cc(NC(=O)CSc2nnc(Cc3ccccc3)n2C)no1,1.71% (inactive)
21,CCOC(=O)c1c(NC(=O)CSc2nnc(-c3ccccc3)n2CC)sc(C(C)=O)c1C,8.92% (inactive)
22,CCN(CC)c1ccc(NC(=O)C2CC3CCC2C3)cc1 (stereo unspecified),24.7% (inactive)
23,Fc1cccc(F)c1CSc1nc2ccccc2[nH]1,3.56% (inactive)
24,COc1ccccc1NC(=O)c1ccc(S(=O)(=O)N2CCCC2)cc1,3.22% (inactive)
25,O=C(NC(=O)c1cccc(OC(F)(F)C(F)F)c1)OC1CCS(=O)(=O)C1 (stereo unspecified),22.5% (inactive)
26,COc1ccc(-c2noc(CCC(N)=O)n2)cc1OC,16.5% (inactive)

row,SMILES,inhibition
1,CCOc1ccc(NCc2nc3ccccc3n2CCOc2ccccc2)cc1,11.6% (inactive)
2,CCOC(=O)c1ccccc1NC(=O)c1ccc(N(C)S(C)(=O)=O)cc1,15.2% (inactive)
3,O=C(Nc1cccs1)Nc1c(F)c(F)c(F)c(F)c1F,1.63% (inactive)
4,CC1(C)CC(=O)C(C=NCC2CCCO2)=C(O)C1 (stereo unspecified),17.9% (inactive)
5,CC(C)C(=O)N(c1ccc(F)cc1)C1C=CS(=O)(=O)C1 (stereo unspecified),-2.25% (inactive)
6,COC(=O)CSc1nc(N)nc(C)c1Br,3.71% (inactive)
7,O=c1c2c(n3nnnc3n1-c1ccccc1)-c1ccccc1CC21CCCC1,-3.55% (inactive)
8,COc1ccc(NC(=O)c2c(C)oc3c2CCCC3)cc1,3.37% (inactive)
9,Cc1ccc(N)cc1S(=O)(=O)N(C)C,7.3% (inactive)
10,Cn1c(=O)c2c(nc(SCC(=O)NC34CC5CC(CC(C5)C3)C4)n2C)n(C)c1=O,16.3% (inactive)
11,COC(=O)c1c(NC(=O)C2COc3ccccc3O2)sc2c1CCN(Cc1ccccc1)C2 (stereo unspecified),25.5% (inactive)
12,CCOc1ccc(NC(=O)C2CCC(N3C(=O)C4CC=CCC4C3=O)CC2)cc1 (stereo unspecified),2.62% (inactive)
13,CC(C)CC1NC(=O)N(CC(=O)N2CCN(S(=O)(=O)c3ccc(Cl)cc3)CC2)C1=O (stereo unspecified),-2.35% (inactive)
14,Nc1ccc(Br)cc1-c1nc2ccccc2[nH]c1=O,-8.67% (inactive)
15,O=C(Nc1cccc(-c2cn3ccccc3n2)c1)c1cccc(Cl)c1,8.96% (inactive)
16,Cc1nn(-c2ccccc2)c(Cl)c1CN(C(=O)CCl)c1cccc2ccccc12,14.8% (inactive)
17,Cc1ccc(CNC(=O)CCc2nc3ccccc3c(=O)[nH]2)cc1,15.6% (inactive)
18,CCN(CC)CCNS(=O)(=O)c1ccc(/C=C/C(=O)O)cc1,13.4% (inactive)
19,Cc1nc2c(sc3nc4c(cc32)COC(C)(C)C4)c(=O)o1,6.35% (inactive)
20,COc1cc(S(=O)(=O)NC2CCCCC2C)ccc1Cl (stereo unspecified),9.69% (inactive)
21,Cc1ccc(C2(C)NC(=O)N(CCOc3ccccc3)C2=O)cc1 (stereo unspecified),3.16% (inactive)
22,CN(C)S(=O)(=O)N1CCN(CC(=O)Nc2cc(Cl)ccc2Cl)CC1,-3.1% (inactive)
23,Oc1ccc(-c2csc(-c3ccccc3)n2)cc1O,35.9% (inactive)
24,Nn1c(CN2CCCCC2)nc2ccccc2c1=O,12.2% (inactive)
25,CCOC(=O)Cc1nnc(NC(=O)CSc2ccc(Cl)cc2)s1,2.82% (inactive)
26,O=C(Cc1cccs1)NNC(=S)NC(=O)c1ccc(F)c(F)c1,6.92% (inactive)

row,SMILES,inhibition
1,N/C(=N\c1nc(CSc2ccc(Cl)cc2)cc(=O)[nH]1)Nc1cccc2ccccc12,6.58% (inactive)
2,CCOC(=O)C[n+]1c(C)sc2ccc(OC)cc21,5.31% (inactive)
3,CCOc1ccc(-n2nc(C(=O)N3CCN(CC)CC3)c3ccccc3c2=O)cc1,18.4% (inactive)
4,O=C(Oc1nsnc1N1CCOCC1)N1CCOCC1,2.57% (inactive)
5,CCCC(=O)C1=C(O)C(C(=O)OC)C(C)(C)CC1=Nc1ccc(N)cc1 (stereo unspecified),10.6% (inactive)
6,CC(C)CCNC(=O)C1CCN(c2nc3ccccc3o2)CC1,12.3% (inactive)
7,CC(C)Cc1nnc(NS(C)(=O)=O)s1,4.19% (inactive)
8,COc1ccc2cc(S(=O)(=O)N3CCN(C)CC3)ccc2c1,16.8% (inactive)
9,COc1ccc(NC(=O)CN(C)CC(=O)Nc2ccccc2SC)cc1,-3.18% (inactive)
10,O=c1[nH]cnc2cc(-c3ccccc3)sc12,7.67% (inactive)
11,Cc1ccc(/C=C/C(=O)O)cc1S(=O)(=O)NCCO,1.34% (inactive)
12,CC(C)(C)NC(=O)NC(=O)CSc1ncn[nH]1,6.43% (inactive)
13,O=C(c1cccs1)N1CCN=C1SCc1ccccc1,9.69% (inactive)
14,COC(=O)c1c(-c2ccccc2)csc1NC(=O)c1ccco1,14.7% (inactive)
15,CCOC(=O)C(CC)n1nc(C)n2c(cc3sccc32)c1=O (stereo unspecified),16.1% (inactive)
16,O=C(O)/C=C/c1ccc2ccccc2n1,-2.31% (inactive)
17,CCOC(=O)c1ccc(-n2ccnc2)c(NC(=O)c2ccc(Cl)cc2)c1,11.1% (inactive)
18,CC(=O)c1cccc(NS(=O)(=O)N2CCCCC2)c1,-4.42% (inactive)
19,COc1ccc(C(c2nnnn2Cc2ccccc2)N2CCN(c3nc4ccccc4s3)CC2)cc1 (stereo unspecified),2.21% (inactive)
20,Cc1ccc(C(=O)c2c(NC(=O)c3ccccc3C)sc(C)c2C)cc1,4.34% (inactive)
21,CCN(CC)Cc1cc(C(C)=O)ccc1O,3.73% (inactive)
22,CCCCN(CCCC)S(=O)(=O)c1ccc(NC(=O)c2cccs2)cc1,-4.73% (inactive)
23,Cc1cc(C)c2cc(CN(Cc3ccc4c(c3)OCO4)Cc3nnnn3Cc3ccco3)c(=O)[nH]c2c1,-1.09% (inactive)
24,Cc1ccn2cc(CCNS(=O)(=O)c3ccc(F)c(C(F)(F)F)c3)nc2c1,0.82% (inactive)
25,COc1ccccc1OCCn1cc(C(=O)c2ccco2)c2ccccc21,12.3% (inactive)
26,CN=C(C)C1=C(O)C(C(=O)OC)C(C)(C)CC1=O (stereo unspecified),-0.09% (inactive)

row,SMILES,inhibition
1,CCC(C)(C)n1nnnc1C(c1ccc(OC)c(OC)c1)N1CCN(c2ccccc2)CC1 (stereo unspecified),2.72% (inactive)
2,COc1ccc(/C=N/NC(=O)C(C)n2cnc3ccccc3c2=O)cc1OC (stereo unspecified),-0.71% (inactive)
3,C=C(C)CC(NCCc1ccccc1)c1ccco1 (stereo unspecified),1.31% (inactive)
4,C=CCn1c(COc2ccccc2)nnc1SCC(=O)O,11.9% (inactive)
5,C=CCOc1c(Br)cc(CNn2nnnc2N)cc1OC,3.16% (inactive)
6,O=C(O)C(=O)/C(=C\c1ccccc1)c1ccc2ccccc2n1,23.7% (inactive)
7,CN1CCN(S(=O)(=O)c2ccc(NC(=O)C3CCCO3)cc2)CC1 (stereo unspecified),13.2% (inactive)
8,CN(C)c1ccc(NC(=S)NC(=O)/C=C/c2ccc(Cl)cc2)cc1,2.61% (inactive)
9,Cc1oc(-c2cccs2)nc1CSCC(=O)N1CCC2(CC1)OCCO2,2.86% (inactive)
10,Cc1nn(-c2ccccc2)c2sc(C(=O)O)cc12,2.23% (inactive)
11,CCOc1cc(-c2nn3cnnc3s2)cc(OCC)c1OCC,4.31% (inactive)
12,COc1ccc(C(=O)CN2C(=O)NC3(CCCc4ccccc43)C2=O)cc1OC (stereo unspecified),7.22% (inactive)
13,CCOC(=O)C1C(c2cc(OC)c(O)c(OC)c2)NC(=S)NC1(O)C(F)(F)F (stereo unspecified),7.39% (inactive)
14,Cn1c(=O)[nH]c(=O)c2c1nc(CN1CCN(Cc3ccccc3)CC1)n2CC(N)=O,8.32% (inactive)
15,O=C(/C=C/c1ccc2c(c1)OCO2)Nc1nc2ccccc2s1,16.2% (inactive)
16,O=C(NNc1nc2ccccc2s1)Nc1ccccc1,5.88% (inactive)
17,CCc1ccc(CN(C)C(=O)c2cc(COc3c(F)cccc3F)on2)cc1,13% (inactive)
18,CCOC(=O)C1CCCN(C(=O)COC(=O)c2cc(=O)c3ccccc3o2)C1 (stereo unspecified),3.09% (inactive)
19,N=c1sccn1CC(=O)NCCc1ccc(Cl)cc1,3.43% (inactive)
20,Cc1cccc(OCCCC(=O)O)c1,4.01% (inactive)
21,O=C(C1CCCO1)N1CCN(c2c3c(nc4cc(-c5ccc(F)cc5)nn24)CCC3)CC1 (stereo unspecified),5.9% (inactive)
22,c1nc(NCCN2CCOCC2)c2sc3nc(N4CCOCC4)c4c(c3c2n1)CCC4,34.1% (inactive)
23,CCn1c(SCC(=O)NCc2ccco2)nnc1-c1ccc(N)cc1,10.3% (inactive)
